Target: B-Raf (V600E)-kinase (Homo sapiens (Human), UniProt P15056, V600E)
Test: Kinase test B-Raf (V600E)
Format: biochemical
Conditions: 1 h preincubation, 250 μM ATP
Procedure: In a dilution series 10 μL/well of test substance solution are placed in a multiwell plate. The dilution series is selected so that generally a range of concentrations of 2 μM to 0.119 nM or 0.017 nM is covered. If necessary the initial concentration of 2 μM is changed to 50 μM, 10 μM or 0.4 μM or 0.2857 μM and further dilution is carried out accordingly. The final concentration of DMSO is 5%. 10 μL/well of the B-Raf (V600E)-kinase solution are pipetted in (containing 0.5 ng B-Raf (V600E)-kinase (e.g. from Upstate) in 20 mM Tris-HCl pH 7.5, 0.1 mM EDTA, 0.1 mM EGTA, 0.286 mM sodium orthovanadate, 10% glycerol, 1 mg/mL bovine serum albumin, 1 mM dithiothreitol) and the mixture is incubated for 1 h at RT under with shaking. The kinase reaction is started by the addition of 20 μL/well ATP solution [final concentration: 250 μM ATP, 30 mM Tris-HCl pH 7.5, 0.02% Brij, 0.2 mM sodium orthovanadate, 10 mM magnesium acetate, 0.1 mM EGTA, phosphatase cocktail (Sigma, #P2850, dilution recommended by the manufacturer)] and 10 μL/well MEK1 solution [containing 50 ng biotinylated MEK1 (prepared from purified MEK1 according to standard procedure, e.g. with EZ-Link Sulpho-NHS-LC-Biotin reagent, Pierce, #21335)] and carried out for 60 min at RT with constant shaking. The reaction is stopped by the addition of 12 μL/well of a 100 mM EDTA solution and incubation is continued for a further 5 min. 55 μL/well of the reaction solution are transferred into a streptavidin-coated plate (e.g. Streptawell HighBond, Roche, #11989685001) and shaken gently for 1 h at RT, in order to bind biotinylated MEK1 to the plate. After elimination of the liquid the plate is washed five times with 200 μL/well of 1×PBS and 100 μL/well solution of primary antibody plus europium-labelled secondary antibody [Anti Phospho-MEK (Ser217/221), Cell Signaling, #9121 and Eu-N1 labelled goat-anti-rabbit antibody, Perkin Elmer, #AD0105] is added, the primary antibody is diluted 1:2000 and the secondary antibody is diluted to 0.4-0.5 μg/mL in Delfia Assay Buffer (Perkin Elmer, #1244-111). After 1 h shaking at RT the solution is poured away and washed five times with 200 μL/well Delfia Wash Buffer (Perkin Elmer, #4010-0010/#1244-114). After the addition of 200 μL/well Enhancement Solution (Perkin Elmer, #4001-0010/#1244-105) the mixture is shaken for 10 min at RT and then measured in a Wallac Victor using the program “Delfia Time Resolved Fluorescence (Europium)”. IC50 values are obtained from these dosage-activity curves using a software program (GraphPadPrizm).

Chain of B-Raf (V600E)-kinase (P15056 whole entry V600E): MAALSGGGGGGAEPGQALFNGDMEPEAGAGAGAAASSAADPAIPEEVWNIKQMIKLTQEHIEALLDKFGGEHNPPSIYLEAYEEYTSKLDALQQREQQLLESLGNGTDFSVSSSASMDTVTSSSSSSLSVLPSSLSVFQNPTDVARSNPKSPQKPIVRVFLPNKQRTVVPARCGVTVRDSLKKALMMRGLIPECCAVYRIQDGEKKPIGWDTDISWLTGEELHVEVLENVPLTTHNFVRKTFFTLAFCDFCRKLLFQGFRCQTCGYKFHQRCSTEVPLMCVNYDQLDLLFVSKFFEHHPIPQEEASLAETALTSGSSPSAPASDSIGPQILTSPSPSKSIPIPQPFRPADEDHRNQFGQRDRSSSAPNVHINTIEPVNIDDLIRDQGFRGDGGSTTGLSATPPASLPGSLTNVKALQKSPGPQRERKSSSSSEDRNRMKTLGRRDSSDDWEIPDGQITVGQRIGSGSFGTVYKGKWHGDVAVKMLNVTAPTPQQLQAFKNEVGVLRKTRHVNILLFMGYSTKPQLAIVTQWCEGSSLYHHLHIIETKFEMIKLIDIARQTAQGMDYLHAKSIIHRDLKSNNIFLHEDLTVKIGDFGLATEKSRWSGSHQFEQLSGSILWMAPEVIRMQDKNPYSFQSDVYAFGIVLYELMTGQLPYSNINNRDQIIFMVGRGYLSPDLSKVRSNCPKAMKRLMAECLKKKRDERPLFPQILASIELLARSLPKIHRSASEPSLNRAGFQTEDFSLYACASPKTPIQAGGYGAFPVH

SMILES	IC50
Cc1ccc(NC(=O)c2cc(CNC(C)C)c(C(C)(C)C)o2)cc1-n1cc(-c2cncc(N3CCOCC3)c2)nn1 [II-2]	0.014 µM
Cc1ccc(C(=O)Nc2cc(C(C)(C)C)on2)cc1-n1cc(-c2cncc(NCCN(C)C)c2)nn1 [I-46]	0.007 µM
CCN1CCN(c2cncc(-c3cn(-c4cc(NC(=O)c5ccc(C(C)(C)C)s5)ccc4C)nn3)c2)CC1 [II-27]	0.008 µM
Cc1ccc(C(=O)Nc2cc(C(C)(C)C)on2)cc1-n1cc(-c2cncc(N3CCN(CC(C)C)CC3)c2)nn1 [I-50]	0.013 µM
CCN1CCN(c2cncc(-c3cn(-c4cc(C(=O)Nc5cc(C(C)(C)C)on5)ccc4C)nn3)c2)CC1 [I-48]	0.006 µM

Results, then the compound that gave them:

IC50	SMILES
0.011 µM	COCCN(C)c1cncc(-c2cn(-c3cc(C(=O)Nc4cc(C(C)(C)C)on4)ccc3C)nn2)c1 [I-53]
0.05 µM	Cc1ccc(C(=O)Nc2cc(C(C)(C)C)on2)cc1-n1cc(-c2cncc(NCC(F)(F)F)c2)nn1 [I-21]
0.006 µM	Cc1ccc(C(=O)Nc2cc(C(F)(F)F)ccn2)cc1-n1cc(-c2cncc(NC3CCN(C)C3)c2)nn1 (centres unmarked) [I-63]
0.03 µM	Cc1ccc(C(=O)Nc2cc(C(F)(F)F)ccn2)cc1-n1cc(-c2cncc(N(C)C3CCOCC3)c2)nn1 [I-69]
0.006 µM	Cc1ccc(C(=O)Nc2cc(C(F)(F)F)ccn2)cc1-n1cc(-c2cncc(N3C[C@@H]4C[C@H]3CN4C)c2)nn1 [I-82]
0.01 µM	Cc1ccc(C(=O)Nc2cc(C(F)(F)F)ccn2)cc1-n1cc(-c2cncc(NC3CCOCC3)c2)nn1 [I-81]
